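Following 48 hours of exposure in 96-well plates, responses at five concentrations were used to interpolate endpoints linearly. GI50 marks 50% less growth.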 Active and inactive are the calls of the source. Cut-off read from the data, not from the text of the source: active = GI50 up to about 1.1 µM and inactive = higher.
What was measured:
Assay in all cases: DTP human tumour cell line panel, 48 h
SF-268 = system: SF-268
SNB-19 = system: SNB-19
COLO 205 = system: COLO 205
DMS-114 = system: DMS-114
OVCAR-3 = system: OVCAR-3
OVCAR-5 = system: OVCAR-5
CCRF-CEM = system: CCRF-CEM
TK-10 = system: TK-10
SR = system: SR
OVCAR-8 = system: OVCAR-8
M14 = system: M14
RPMI-8226 = system: RPMI-8226
HL-60 = system: HL-60
SF-295 = system: SF-295
786-0 = system: 786-0
HOP-18 = system: HOP-18
DLD-1 = system: DLD-1
HOP-92 = system: HOP-92
NCI-H23 = system: NCI-H23
M19-MEL = system: M19-MEL
HCC 2998 = system: HCC 2998
Malme-3M = system: Malme-3M
MOLT-4 = system: MOLT-4
UO-31 = system: UO-31
EKVX = system: EKVX
SK-MEL-5 = system: SK-MEL-5
U-251 = system: U-251
UACC-257 = system: UACC-257
HCT-15 = system: HCT-15
SK-MEL-2 = system: SK-MEL-2
K562 = system: K562
RXF 393 = system: RXF 393
SK-MEL-28 = system: SK-MEL-28
KM12 = system: KM12
SK-OV-3 = system: SK-OV-3
IGROV-1 = system: IGROV-1
NCI-H460 = system: NCI-H460
XF498 = system: XF498
SF-539 = system: SF-539
NCI-H226 = system: NCI-H226
NCI-H522 = system: NCI-H522
LXFL 529 = system: LXFL 529
A549 = system: A549
ACHN = system: ACHN
SN12C = system: SN12C
SW-620 = system: SW-620
HT-29 = system: HT-29
DMS-273 = system: DMS-273
T47D = system: T47D
DU-145 = system: DU-145
PC-3 = system: PC-3
KM-20L2 = system: KM-20L2
MDA-N = system: MDA-N
OVCAR-4 = system: OVCAR-4
CAKI-1 = system: CAKI-1
HCT-116 = system: HCT-116
BT-549 = system: BT-549
MDA-MB-435 = system: MDA-MB-435
A498 = system: A498
SNB-75 = system: SNB-75
HOP-62 = system: HOP-62
LOX IMVI = system: LOX IMVI
MDA-MB-231 = system: MDA-MB-231
SNB-78 = system: SNB-78
Hs-578T = system: Hs-578T
UACC-62 = system: UACC-62

O=C(O)C1=C(O)C(C(=O)O)C23CCCCCCCCCCC12C(C(=O)O)C(O)=C3C(=O)O (configuration not stated)
GI50 (SF-268): > 100000 nM (inactive) | GI50 (SNB-19): > 100000 nM (inactive) | GI50 (COLO 205): > 100000 nM (inactive) | GI50 (DMS-114): > 100000 nM (inactive) | GI50 (OVCAR-3): > 100000 nM (inactive) | GI50 (OVCAR-5): > 100000 nM (inactive) | GI50 (CCRF-CEM): > 100000 nM (inactive) | GI50 (TK-10): > 100000 nM (inactive) | GI50 (SR): > 100000 nM (inactive) | GI50 (OVCAR-8): > 100000 nM (inactive) | GI50 (M14): > 100000 nM (inactive) | GI50 (RPMI-8226): > 100000 nM (inactive) | GI50 (HL-60): > 100000 nM (inactive) | GI50 (SF-295): > 100000 nM (inactive) | GI50 (786-0): > 100000 nM (inactive) | GI50 (HOP-18): > 100000 nM (inactive) | GI50 (DLD-1): > 100000 nM (inactive) | GI50 (HOP-92): > 100000 nM (inactive) | GI50 (NCI-H23): > 100000 nM (inactive) | GI50 (M19-MEL): > 100000 nM (inactive) | GI50 (HCC 2998): > 100000 nM (inactive) | GI50 (Malme-3M): > 100000 nM (inactive) | GI50 (MOLT-4): > 100000 nM (inactive) | GI50 (UO-31): > 100000 nM (inactive) | GI50 (EKVX): > 100000 nM (inactive) | GI50 (SK-MEL-5): > 100000 nM (inactive) | GI50 (U-251): > 100000 nM (inactive) | GI50 (UACC-257): > 100000 nM (inactive) | GI50 (HCT-15): > 100000 nM | GI50 (SK-MEL-2): > 100000 nM (inactive) | GI50 (K562): > 100000 nM (inactive) | GI50 (RXF 393): > 100000 nM (inactive) | GI50 (SK-MEL-28): > 100000 nM (inactive) | GI50 (KM12): > 100000 nM (inactive) | GI50 (SK-OV-3): > 100000 nM (inactive) | GI50 (IGROV-1): > 100000 nM (inactive) | GI50 (NCI-H460): > 100000 nM (inactive) | GI50 (XF498): > 100000 nM (inactive) | GI50 (SF-539): > 100000 nM (inactive) | GI50 (NCI-H226): > 100000 nM (inactive) | GI50 (NCI-H522): > 100000 nM (inactive) | GI50 (LXFL 529): > 100000 nM (inactive) | GI50 (A549): > 100000 nM (inactive) | GI50 (ACHN): > 100000 nM (inactive) | GI50 (SN12C): > 100000 nM (inactive) | GI50 (SW-620): > 100000 nM (inactive) | GI50 (HT-29): > 100000 nM (inactive) | GI50 (DMS-273): > 100000 nM (inactive)

COc1cccc2c1C(=O)c1c(O)c3c(c(O)c1C2=O)C[C@@](O)(C(=O)CO)C[C@@H]3OC1CC(N(C)C)C(O)C(C)O1 (some centres not stated)
GI50 (T47D): < 10 nM (active) | GI50 (SF-268): < 12.6 nM (active) | GI50 (DU-145): 51.9 nM (active) | GI50 (PC-3): < 10 nM (active) | GI50 (KM-20L2): 36.7 nM (active) | GI50 (MDA-N): < 10 nM (active) | GI50 (OVCAR-4): < 18.9 nM (active) | GI50 (SNB-19): 25.4 nM (active) | GI50 (CAKI-1): < 10 nM (active) | GI50 (COLO 205): < 10 nM (active) | GI50 (OVCAR-3): 64.4 nM (active) | GI50 (OVCAR-5): 64.3 nM (active) | GI50 (CCRF-CEM): 99.1 nM (active) | GI50 (TK-10): 30.3 nM (active) | GI50 (SR): < 10 nM (active) | GI50 (OVCAR-8): < 25.5 nM (active) | GI50 (M14): 30.6 nM (active) | GI50 (RPMI-8226): < 17.5 nM (active) | GI50 (HL-60): 100 nM (active) | GI50 (SF-295): < 10 nM (active) | GI50 (786-0): < 19.7 nM (active) | GI50 (HOP-18): 80.5 nM (active) | GI50 (DLD-1): < 15.7 nM (active) | GI50 (HOP-92): 31 nM (active) | GI50 (NCI-H23): 13.7 nM (active) | GI50 (HCT-116): < 10 nM (active) | GI50 (HCC 2998): 67.5 nM (active) | GI50 (Malme-3M): < 14.2 nM (active) | GI50 (BT-549): 53.7 nM (active) | GI50 (MDA-MB-435): < 10 nM (active) | GI50 (MOLT-4): 15.9 nM (active) | GI50 (UO-31): 20.4 nM (active) | GI50 (A498): < 11.6 nM (active) | GI50 (EKVX): 41.5 nM (active) | GI50 (SK-MEL-5): 12.9 nM (active) | GI50 (U-251): < 13.4 nM (active) | GI50 (SNB-75): 15.5 nM (active) | GI50 (UACC-257): 28.5 nM (active) | GI50 (HCT-15): 18.2 nM | GI50 (SK-MEL-2): < 21.2 nM (active) | GI50 (K562): 58.3 nM (active) | GI50 (RXF 393): 13.8 nM (active) | GI50 (HOP-62): 27.2 nM (active) | GI50 (LOX IMVI): < 10 nM (active) | GI50 (SK-MEL-28): 22.7 nM (active) | GI50 (KM12): < 16 nM (active) | GI50 (SK-OV-3): 72.8 nM (active) | GI50 (MDA-MB-231): 52.8 nM (active) | GI50 (IGROV-1): < 10.4 nM (active) | GI50 (SNB-78): 45.3 nM (active) | GI50 (NCI-H460): < 10 nM (active) | GI50 (XF498): 14.9 nM (active) | GI50 (SF-539): < 10 nM (active) | GI50 (NCI-H226): < 14.9 nM (active) | GI50 (NCI-H522): < 11 nM (active) | GI50 (LXFL 529): < 17.4 nM (active) | GI50 (A549): < 10 nM (active) | GI50 (ACHN): < 10 nM (active) | GI50 (SN12C): 18.9 nM (active) | GI50 (Hs-578T): < 10 nM (active) | GI50 (SW-620): < 10 nM (active) | GI50 (HT-29): < 10 nM (active) | GI50 (DMS-273): < 10.6 nM (active) | GI50 (UACC-62): < 12 nM (active)
